Test results taken from ChEMBL document CHEMBL5344462, “Novel-Type GABAB PAMs: Structure-Activity Relationship in Light of the Protein Structure” (ACS Med Chem Lett, 2024).

Experiment: Positive allosteric modulator activity at rat cortical membrane GABA-B receptor incubated for 60 min by [35S]GTPgammaS binding assay
Format: cell membranes, Cortex

Structure (SMILES)	pEC50
Cc1ncc(-c2ccc(C(F)(F)F)cc2)c(N[C@@H]2C[C@H]3CC[C@@H]2C3)n1	6.13
CSc1c(C)nc2cc(-c3ccc(Cl)cc3)nn2c1-c1cccc(NC(C)=O)c1	7.75
CSc1c(C)nc2cc(-c3ccc(Cl)cc3)nn2c1N1CCC[C@@H](C(=O)O)C1	7.15
COc1nn(-c2ccc(F)c(NC(C)=O)c2)c(=O)n(Cc2ccc(Cl)c(F)c2)c1=O	6.89
CC(=O)Nc1cccc(-c2c(S(C)(=O)=O)c(C)nc3cc(-c4ccc(Cl)cc4)nn23)c1	6.42
Cc1nc2ccc(I)cc2c(N2CCCCC2)c1S(C)(=O)=O	5.83
CC(=O)Nc1cccc(-c2c([S+](C)[O-])c(C)nc3cc(-c4ccc(Cl)cc4)nn23)c1 (stereo not given)	6.19
CSc1c(C)nc2cc(-c3ccc(Cl)cc3)nn2c1N1CCC[C@H](C(=O)O)C1	6.75
CC(=O)Nc1cccc(-c2cc(C)nc3cc(-c4ccc(Cl)cc4)nn23)c1	6.6
CC(=O)Nc1ccccc1-c1cc(C)nc2cc(-c3ccc(Cl)cc3)nn12	6.17
CCOC(=O)C1CCCN(c2cc(C)nc3cc(-c4ccc(Cl)cc4)nn23)C1 (racemic)	5.85
CC(C)(C)c1cc(C(C)(C)C)c2c(c1)C(O)(C(F)(F)F)C(=O)O2 (racemic)	6.78
Cc1nc(N2CCCCC2CCO)c2sc(-c3ccc(Cl)cc3)cc2n1 (racemic)	6.59
Cc1cc(NC2CCCNC2=O)n2nc(-c3ccc(Cl)cc3)cc2n1 (racemic)	5.4
Cc1nc2cc(-c3ccc(Cl)cc3)nn2c(N2CCOCC2CCO)c1C#N (racemic)	5.78
Cc1nc(N2CCCCC2CCO)c2nc(-c3ccc(Cl)cc3)cn2n1 (racemic)	6.24
CCOC(=O)C1=C(N2CCOCC2CCO)N2N=C(c3ccc(Cl)cc3)CC2N=C1C (racemic)	6.09
COc1c(C)nc2cc(-c3ccc(Cl)cc3)nn2c1N1CCCCC1CCO (racemic)	7.05

Structure (SMILES)	pEC50
Cc1cc(N2CCCCC2CCO)c2sc(-c3ccc(Cl)cc3)cc2n1 (racemic)	6.22
Cc1cc(N2CCCCC2CCO)n2nc(-c3ccc(C#N)cc3)cc2n1 (racemic)	5.29
Cc1cc(N2CCCCC2CCO)n2nc(-c3ccccc3)cc2n1 (racemic)	5.91
COc1c(C)nc2cc(-c3ccc(Cl)cc3)nn2c1N1CCCC(C(=O)O)C1 (racemic)	5.69
Cc1nc(N2CCCCC2CCO)n2nc(-c3ccc(Cl)cc3)cc2n1 (racemic)	6.63
Cc1cc(N2CCOCC2CCO)n2nc(-c3ccc(Cl)cc3)cc2n1 (racemic)	5.61
Cc1cc(N2CCCCC2CCO)n2nc(-c3cccc(Cl)c3)cc2n1 (racemic)	5.3
Cc1cc(N2CCCCC2C(N)=O)n2nc(-c3ccc(Cl)cc3)cc2n1 (racemic)	6.55
Cc1cc(N2CCCCC2C(=O)O)n2nc(-c3ccc(Cl)cc3)cc2n1 (racemic)	5.97
COc1ccc(-c2cc3nc(C)cc(N4CCCCC4CCO)n3n2)cc1 (racemic)	5.25
Cc1cc(N2CCCCC2CCO)n2nc(-c3ccc(F)cc3)cc2n1 (racemic)	5.93
Cc1cc(N2CCCCC2CCO)c2cc(-c3ccc(Cl)cc3)oc2n1 (racemic)	5.92
Cc1cc(N2CCCCC2CCO)n2nc(-c3ccc(Cl)cc3)cc2n1 (racemic)	6.21
CSc1c(C)nc2cc(-c3ccc(Cl)cc3)nn2c1N1CCCC(C(=O)O)C1 (racemic)	6.93
Cc1cc(N2CCCC(C(=O)O)C2)n2nc(-c3ccc(Cl)cc3)cc2n1 (racemic)	5.32
Cc1cc(NC2CCCCNC2=O)n2nc(-c3ccc(Cl)cc3)cc2n1 (racemic)	5.89
Cc1cc(N2CCCCC2CCO)n2nc(Cc3ccccc3)cc2n1 (racemic)	5.24
